Source: ChEMBL document CHEMBL5303304, “EUbOPEN Chemogenomics Library - IncuCyte” (2023)

Assays:
Type in all cases: toxicity, cell-based
HEK-293T = assay: Incucyte cell viability with HEK293T; conditions: human, 10 µM, compound concentration 10 uM
Fibroblast = assay: Incucyte cell viability with human fibroblast; conditions: 10 µM, compound concentration 10 uM
U2OS = assay: Incucyte cell viability with U2OS; conditions: human, 10 µM, compound concentration 10 uM
Also: unitless GR value; below 1 slowed growth and below 0 cell loss.

Compound: O=C(N[C@H]1CCCCC/C=C\C2C[C@@]2(C(=O)O)NC(=O)[C@@H]2C[C@@H](Oc3ccncc3)CN2C1=O)OC1CCCC1 (stereo partly specified) [BI 1675]
- Growth Rate (HEK-293T; 0 h, replicate number 1): -0.15
- Growth Rate (HEK-293T; 0 h, replicate number 2): -0.95
- Growth Rate (HEK-293T; 6 h, replicate number 2): 0.64
- Growth Rate (HEK-293T; 12 h, replicate number 2): 0.89
- Growth Rate (HEK-293T; 24 h, replicate number 1): 0.94
- Growth Rate (HEK-293T; 24 h, replicate number 2): 0.89
- Growth Rate (Fibroblast; 6 h, replicate number 1): 0.23
- Growth Rate (Fibroblast; 6 h, replicate number 2): 0.39
- Growth Rate (Fibroblast; 12 h, replicate number 1): 0.84
- Growth Rate (Fibroblast; 18 h, replicate number 2): 0.91
- Growth Rate (Fibroblast; 24 h, replicate number 1): 0.99
- Growth Rate (U2OS; 0 h, replicate number 1): 0.43
- Growth Rate (U2OS; 6 h, replicate number 1): 0.77
- Growth Rate (U2OS; 12 h, replicate number 1): 0.68
- Growth Rate (U2OS; 12 h, replicate number 2): 0.99
- Growth Rate (U2OS; 18 h, replicate number 1): 0.77
- Growth Rate (U2OS; 24 h, replicate number 1): 0.89

Compound: CNc1nc(Nc2ccc(C(=O)N3CCOCC3)cc2OC)nc2[nH]cc(Cl)c12
- Growth Rate (HEK-293T; 6 h, replicate number 1): 0.03
- Growth Rate (HEK-293T; 6 h, replicate number 2): -0.31
- Growth Rate (HEK-293T; 12 h, replicate number 1): 0.06
- Growth Rate (HEK-293T; 12 h, replicate number 2): -0.05
- Growth Rate (HEK-293T; 18 h, replicate number 1): 0.26
- Growth Rate (HEK-293T; 18 h, replicate number 2): 0.08
- Growth Rate (HEK-293T; 24 h, replicate number 1): 0.27
- Growth Rate (HEK-293T; 24 h, replicate number 2): 0.24
- Growth Rate (Fibroblast; 0 h, replicate number 1): -0.95
- Growth Rate (Fibroblast; 0 h, replicate number 2): -0.43
- Growth Rate (U2OS; 0 h, replicate number 1): -0.99
- Growth Rate (U2OS; 12 h, replicate number 2): 0.5

Compound: COc1ccc(F)c(F)c1C(=O)c1cnc(NC2CCN(S(C)(=O)=O)CC2)nc1N [RG-547]
- Growth Rate (HEK-293T; 0 h, replicate number 1): -1
- Growth Rate (HEK-293T; 0 h, replicate number 2): 0.15
- Growth Rate (HEK-293T; 6 h, replicate number 1): 0.16
- Growth Rate (HEK-293T; 6 h, replicate number 2): -0.37
- Growth Rate (HEK-293T; 12 h, replicate number 1): -0.1
- Growth Rate (HEK-293T; 12 h, replicate number 2): -0.5
- Growth Rate (HEK-293T; 18 h, replicate number 1): -0.15
- Growth Rate (HEK-293T; 18 h, replicate number 2): -0.47
- Growth Rate (HEK-293T; 24 h, replicate number 1): -0.13
- Growth Rate (HEK-293T; 24 h, replicate number 2): -0.37
- Growth Rate (Fibroblast; 0 h, replicate number 1): -1
- Growth Rate (Fibroblast; 0 h, replicate number 2): 0.02
- Growth Rate (Fibroblast; 6 h, replicate number 2): 0.62
- Growth Rate (Fibroblast; 12 h, replicate number 2): 0.53
- Growth Rate (Fibroblast; 18 h, replicate number 1): 0.96
- Growth Rate (Fibroblast; 18 h, replicate number 2): 0.28
- Growth Rate (Fibroblast; 24 h, replicate number 1): 0.65
- Growth Rate (Fibroblast; 24 h, replicate number 2): 0.15
- Growth Rate (U2OS; 0 h, replicate number 1): -1
- Growth Rate (U2OS; 0 h, replicate number 2): 0.68
- Growth Rate (U2OS; 6 h, replicate number 2): 0.23
- Growth Rate (U2OS; 12 h, replicate number 1): 0.73
- Growth Rate (U2OS; 12 h, replicate number 2): 0.02
- Growth Rate (U2OS; 18 h, replicate number 1): 0.18
- Growth Rate (U2OS; 18 h, replicate number 2): 0.02
- Growth Rate (U2OS; 24 h, replicate number 1): 0.06
- Growth Rate (U2OS; 24 h, replicate number 2): -0.11

Compound: CCCN1C(=O)c2ccc(Cl)cc2Nc2ncccc21
- Growth Rate (HEK-293T; 12 h, replicate number 2): 0.86
- Growth Rate (Fibroblast; 0 h, replicate number 1): -1
- Growth Rate (Fibroblast; 6 h, replicate number 1): 0.56
- Growth Rate (Fibroblast; 6 h, replicate number 2): -0.63
- Growth Rate (Fibroblast; 12 h, replicate number 1): 0.9
- Growth Rate (Fibroblast; 12 h, replicate number 2): 0.55
- Growth Rate (Fibroblast; 18 h, replicate number 1): 0.68
- Growth Rate (Fibroblast; 18 h, replicate number 2): 0.62
- Growth Rate (Fibroblast; 24 h, replicate number 1): 0.63
- Growth Rate (U2OS; 0 h, replicate number 1): 0.38
- Growth Rate (U2OS; 6 h, replicate number 1): 0.65
- Growth Rate (U2OS; 12 h, replicate number 2): 0.68
- Growth Rate (U2OS; 18 h, replicate number 2): 0.91
- Growth Rate (U2OS; 24 h, replicate number 1): 0.98

Compound: CC(C)Oc1ccc(Cc2ccc(NC3=NCCN3)cc2)cc1
- Growth Rate (HEK-293T; 6 h, replicate number 1): -0.15
- Growth Rate (HEK-293T; 6 h, replicate number 2): -0.39
- Growth Rate (HEK-293T; 12 h, replicate number 1): 0.09
- Growth Rate (HEK-293T; 12 h, replicate number 2): 0.14
- Growth Rate (HEK-293T; 18 h, replicate number 1): 0.26
- Growth Rate (HEK-293T; 18 h, replicate number 2): 0.42
- Growth Rate (HEK-293T; 24 h, replicate number 1): 0.37
- Growth Rate (HEK-293T; 24 h, replicate number 2): 0.45
- Growth Rate (Fibroblast; 0 h, replicate number 1): -1
- Growth Rate (Fibroblast; 0 h, replicate number 2): -0.09
- Growth Rate (Fibroblast; 6 h, replicate number 1): -0.34
- Growth Rate (Fibroblast; 6 h, replicate number 2): 0
- Growth Rate (Fibroblast; 12 h, replicate number 1): -0.06
- Growth Rate (Fibroblast; 12 h, replicate number 2): 0.88
- Growth Rate (Fibroblast; 18 h, replicate number 1): 0.24
- Growth Rate (Fibroblast; 24 h, replicate number 1): 0.26
- Growth Rate (U2OS; 0 h, replicate number 1): 0.6
- Growth Rate (U2OS; 6 h, replicate number 1): 0.1
- Growth Rate (U2OS; 12 h, replicate number 1): 0.64
- Growth Rate (U2OS; 18 h, replicate number 1): 0.59
- Growth Rate (U2OS; 24 h, replicate number 1): 0.58

Compound: CCN1CCN(Cc2ccc(C(=O)Nc3ccc(C)c(Oc4ccc5c(c4)CC(=O)N5)c3)cc2C(F)(F)F)CC1.Cl.Cl
- Growth Rate (HEK-293T; 6 h, replicate number 1): -0.56
- Growth Rate (HEK-293T; 6 h, replicate number 2): -0.1
- Growth Rate (HEK-293T; 12 h, replicate number 1): -0.3
- Growth Rate (HEK-293T; 12 h, replicate number 2): 0.11
- Growth Rate (HEK-293T; 18 h, replicate number 1): -0.23
- Growth Rate (HEK-293T; 18 h, replicate number 2): 0.15
- Growth Rate (HEK-293T; 24 h, replicate number 1): -0.13
- Growth Rate (HEK-293T; 24 h, replicate number 2): 0.14
- Growth Rate (Fibroblast; 0 h, replicate number 2): 0.42
- Growth Rate (Fibroblast; 6 h, replicate number 1): 0.34
- Growth Rate (Fibroblast; 6 h, replicate number 2): 0.36
- Growth Rate (Fibroblast; 12 h, replicate number 1): -0.1
- Growth Rate (Fibroblast; 12 h, replicate number 2): -0.08
- Growth Rate (Fibroblast; 18 h, replicate number 1): -0.33
- Growth Rate (Fibroblast; 18 h, replicate number 2): -0.3
- Growth Rate (Fibroblast; 24 h, replicate number 1): -0.38
- Growth Rate (Fibroblast; 24 h, replicate number 2): -0.31
- Growth Rate (U2OS; 0 h, replicate number 2): -0.46
- Growth Rate (U2OS; 6 h, replicate number 2): -0.37
- Growth Rate (U2OS; 12 h, replicate number 1): 0.23
- Growth Rate (U2OS; 12 h, replicate number 2): -0.14
- Growth Rate (U2OS; 18 h, replicate number 1): 0.37
- Growth Rate (U2OS; 18 h, replicate number 2): -0.02
- Growth Rate (U2OS; 24 h, replicate number 1): 0.51
- Growth Rate (U2OS; 24 h, replicate number 2): -0.01

Compound: Cc1cc(Nc2cc(N)ncn2)c(=O)n2c1C(=O)NC21CCCCC1 [TOMIVOSERTIB]
- Growth Rate (HEK-293T; 0 h, replicate number 2): 0.56
- Growth Rate (HEK-293T; 6 h, replicate number 1): 0.32
- Growth Rate (Fibroblast; 0 h, replicate number 2): -1
- Growth Rate (Fibroblast; 6 h, replicate number 1): 0.58
- Growth Rate (Fibroblast; 6 h, replicate number 2): -0.8
- Growth Rate (Fibroblast; 12 h, replicate number 1): -1
- Growth Rate (U2OS; 0 h, replicate number 1): 0.95
- Growth Rate (U2OS; 0 h, replicate number 2): 0.6
- Growth Rate (U2OS; 6 h, replicate number 2): 0.49
- Growth Rate (U2OS; 12 h, replicate number 1): 0.96
- Growth Rate (U2OS; 18 h, replicate number 1): 0.93
- Growth Rate (U2OS; 18 h, replicate number 2): 0.92
- Growth Rate (U2OS; 24 h, replicate number 1): 0.88
- Growth Rate (U2OS; 24 h, replicate number 2): 0.85

Compound: CC[C@H](NC(=O)[C@H](C)NC)C(=O)N1C[C@@H](O)C[C@H]1Cc1c(-c2[nH]c3cc(F)ccc3c2C[C@@H]2C[C@H](O)CN2C(=O)[C@H](CC)NC(=O)[C@H](C)NC)[nH]c2cc(F)ccc12 [BIRINAPANT]
- Growth Rate (HEK-293T; 6 h, replicate number 1): 0.67
- Growth Rate (HEK-293T; 6 h, replicate number 2): 0.87
- Growth Rate (HEK-293T; 12 h, replicate number 1): 0.62
- Growth Rate (HEK-293T; 12 h, replicate number 2): 0.97
- Growth Rate (HEK-293T; 18 h, replicate number 1): 0.9
- Growth Rate (Fibroblast; 0 h, replicate number 1): -0.44
- Growth Rate (Fibroblast; 0 h, replicate number 2): -0.61
- Growth Rate (U2OS; 0 h, replicate number 1): 0.94
- Growth Rate (U2OS; 12 h, replicate number 1): 0.81
- Growth Rate (U2OS; 18 h, replicate number 1): 0.98

Compound: COc1c(OCCCN2CCOCC2)ccc2c1N=C(NC(=O)c1cnc(N)nc1)N1CCN=C21 [COPANLISIB]
- Growth Rate (HEK-293T; 0 h, replicate number 2): -1
- Growth Rate (HEK-293T; 6 h, replicate number 1): 0.09
- Growth Rate (HEK-293T; 6 h, replicate number 2): -0.34
- Growth Rate (HEK-293T; 12 h, replicate number 1): 0.15
- Growth Rate (HEK-293T; 12 h, replicate number 2): -0.17
- Growth Rate (HEK-293T; 18 h, replicate number 1): 0.12
- Growth Rate (HEK-293T; 18 h, replicate number 2): -0.05
- Growth Rate (HEK-293T; 24 h, replicate number 1): 0.18
- Growth Rate (HEK-293T; 24 h, replicate number 2): -0.04
- Growth Rate (Fibroblast; 6 h, replicate number 1): -0.21
- Growth Rate (Fibroblast; 6 h, replicate number 2): -0.38
- Growth Rate (Fibroblast; 12 h, replicate number 1): 0.1
- Growth Rate (Fibroblast; 12 h, replicate number 2): -0.18
- Growth Rate (Fibroblast; 18 h, replicate number 1): 0.26
- Growth Rate (Fibroblast; 18 h, replicate number 2): 0.04
- Growth Rate (Fibroblast; 24 h, replicate number 1): 0.41
- Growth Rate (Fibroblast; 24 h, replicate number 2): 0.24
- Growth Rate (U2OS; 0 h, replicate number 1): -0.44
- Growth Rate (U2OS; 6 h, replicate number 1): 0.74
- Growth Rate (U2OS; 18 h, replicate number 1): 0.98
- Growth Rate (U2OS; 18 h, replicate number 2): 0.9
- Growth Rate (U2OS; 24 h, replicate number 1): 0.96
- Growth Rate (U2OS; 24 h, replicate number 2): 0.79

Compound: O=C(O)c1ccc(-c2c[nH]c3ncc(-c4ccccc4)cc23)cc1C1CCCC1 [GSK-650394]
- Growth Rate (HEK-293T; 0 h, replicate number 1): 0.23
- Growth Rate (HEK-293T; 0 h, replicate number 2): 0.55
- Growth Rate (Fibroblast; 0 h, replicate number 2): -0.45
- Growth Rate (Fibroblast; 6 h, replicate number 1): 0.36
- Growth Rate (Fibroblast; 6 h, replicate number 2): -0.95
- Growth Rate (Fibroblast; 12 h, replicate number 1): -1
- Growth Rate (Fibroblast; 12 h, replicate number 2): 0.77
- Growth Rate (Fibroblast; 18 h, replicate number 1): 0.91
- Growth Rate (Fibroblast; 24 h, replicate number 1): 0.38
- Growth Rate (U2OS; 0 h, replicate number 1): 0.01
- Growth Rate (U2OS; 6 h, replicate number 1): 0.39
- Growth Rate (U2OS; 12 h, replicate number 1): 0.79
- Growth Rate (U2OS; 12 h, replicate number 2): 0.98
- Growth Rate (U2OS; 18 h, replicate number 1): 0.86
- Growth Rate (U2OS; 18 h, replicate number 2): 0.92
- Growth Rate (U2OS; 24 h, replicate number 2): 0.96

Compound: Cn1ncc(-c2nc(N[C@H]3CC[C@H](N)CC3)ncc2Cl)c1CC1CC1 [BTX-A51]
- Growth Rate (HEK-293T; 0 h, replicate number 1): -0.79
- Growth Rate (HEK-293T; 24 h, replicate number 1): 0.57
- Growth Rate (HEK-293T; 24 h, replicate number 2): 0.67
- Growth Rate (Fibroblast; 0 h, replicate number 1): -0.32
- Growth Rate (Fibroblast; 0 h, replicate number 2): -0.85
- Growth Rate (U2OS; 18 h, replicate number 2): 0.89
- Growth Rate (U2OS; 24 h, replicate number 2): 0.74
